Assay results from patent publication EP0450065A1, “ANTIVIRAL AGENT” (priority 1988, dated 1990).

What was measured:
Type in all cases: cell-based
[1] = system: herpes simplex virus type 2 (169 strain); assay: 50% Tissue culture infective dose (TCID50), Read-Munch method, negative logarithm of virus dilution; design: key to Cytopathic effect [CPE] (5days) △TCID50 / Cytopathic effect [CPE] (6days) △TCID50 / Cytopathic effect [CPE] (3days) △TCID50: difference in -log TCID50 from untreated control; key to Cytopathic effect [CPE] (5days) TCID50 / Cytopathic effect [CPE] (3days) TCID50 / Cytopathic effect [CPE] (6days) TCID50: negative log of maximum virus dilution infecting 50% of tissues; details: HSV-2 (169); for Cytopathic effect [CPE] (3days) △TCID50 / Cytopathic effect [CPE] (5days) △TCID50 / Cytopathic effect [CPE] (6days) △TCID50: difference from control
Experimental: (§1) The amount of virus infecting 50% of tissues (TCID₅₀) was determined by the Read-Munch method and expressed in negative logarithm of the maximum radio of dilution of virus. The difference of the amount thus determined from the amount found in the control (omitting the treatment with a chemical) was reported as ΔTCID₅₀. A sample whose ΔCPE's found on the last day of observation and on each of the days spent for the observation exceeded 1.0 was evaluated as effective.
In vitro antiviral activity of Compound A against herpes simplex virus type 2 (169 strain) The test was carried out by following the procedure of Example 3.

[2] = system: herpes simplex virus type 1 (KOS strain); assay: Control of CPE (cytopathic effect) manifestation in vero cells; details: HSV-1 (KOS), Example 7; for Cytopathic effect [CPE] (3days) △CPE / Cytopathic effect [CPE] (5days) △CPE: difference from control
Experimental: Vero cells cultured and grown in a monolayer on microplates to test for cytopathic effect due to viral infection, with solutions of Compound A diluted to varying ratios and solutions of virus diluted to varying ratios added severally thereto in a volume of 0.1 ml, were cultured under the conditions of 5% CO₂ and 37°C and were examined for CPE manifestation under a microscope. The observation was continued for five to six days.
The degree of CPE brought about by viral infection was rated on the five-point scale, wherein 3 stands for CPE observed on not less than 75% of cultured cells, 2 for CPE observed on 50% of cultured cells, 1 for CPE observed on 25% of cultured cells, 0.5 for occurrence of one to two extremely minute DPE spots, and 0 for perfect absence of recognizable CPE. The CPE scores obtained at the four holes in each microplate were averaged and the difference of the average from the average obtained in the control (omitting the treatment with a chemical) was reported as ΔCPE.
(§2) Antiviral activity of Compound A and Compound B against herpes simplex virus type 1 (KOS strain) The test was carried out by following the procedure of Example 3.

[3] = system: herpes simplex virus type 1 (KOS strain); assay: 50% Tissue culture infective dose (TCID50), Read-Munch method, negative logarithm of virus dilution; design: key to Cytopathic effect [CPE] (5days) TCID50 / Cytopathic effect [CPE] (3days) TCID50: TCID50 as negative log of maximum virus dilution ratio; key to Cytopathic effect [CPE] (5days) △TCID50 / Cytopathic effect [CPE] (3days) △TCID50: difference from control TCID50, in negative log of virus dilution; details: HSV-1 (KOS), Example 7; for Cytopathic effect [CPE] (3days) △TCID50 / Cytopathic effect [CPE] (5days) △TCID50: difference from control
Experimental: as §1, §2

[4] = system: herpes simplex virus type 1 (KOS strain); assay: One-step growth of virus, plaque assay with vero cells; details: for Intracellular virus Average / Intracellular virus Control ratio % / Intracellular virus Control ratio -logT/C: 24 hours
Experimental: Antiviral activity of Compound A and Compound B against one-step growth of herpes simplex virus type 1 (KOS strain) Cells grown in a monolayer, with a sample of a given compound diluted in a varying ratio added, were pretreated for 15 minutes. Then, the pretreated cells were infected with the herpes simplex virus type 1 (KOS strain) at an infecting ratio of 0.25 and left standing for 24 hours. At the end of the standing, the intracellular and extracellular amounts of virus were determined by the plaque assay with vero cells.

## K₅BW₁₂O₄₀.15H₂O [Compound A]
[1]; 5 μg/ml, Example 4
  Cytopathic effect [CPE] (3days) △TCID50: 0
  Cytopathic effect [CPE] (5days) △TCID50: 0.2
[1]; 10 μg/ml, Example 4
  Cytopathic effect [CPE] (3days) TCID50: 6.3
  Cytopathic effect [CPE] (5days) TCID50: 6.3
  Cytopathic effect [CPE] (3days) △TCID50: 0.2
  Cytopathic effect [CPE] (5days) △TCID50: 0.2
[1]; 20 μg/ml, Example 4
  Cytopathic effect [CPE] (3days) TCID50: 6.5
  Cytopathic effect [CPE] (5days) TCID50: 6.2
  Cytopathic effect [CPE] (3days) △TCID50: 0
  Cytopathic effect [CPE] (5days) △TCID50: 0.3
[1]; 50 μg/ml, Example 4
  Cytopathic effect [CPE] (3days) TCID50: 5.5
  Cytopathic effect [CPE] (5days) TCID50: 5.5
  Cytopathic effect [CPE] (3days) △TCID50: 1.0
  Cytopathic effect [CPE] (5days) △TCID50: 1.0
[1]; 100 μg/ml, Example 4
  Cytopathic effect [CPE] (3days) TCID50: 3.5
  Cytopathic effect [CPE] (5days) TCID50: 3.5
  Cytopathic effect [CPE] (3days) △TCID50: 3.0
  Cytopathic effect [CPE] (5days) △TCID50: 3.0
[1]; 100 μg/ml, Example 6
  Cytopathic effect [CPE] (3days) TCID50: < 3.5
  Cytopathic effect [CPE] (6days) TCID50: < 3.5
  Cytopathic effect [CPE] (3days) △TCID50: > 3.2
  Cytopathic effect [CPE] (6days) △TCID50: > 3.2
[1]; 200 μg/ml, Example 6
  Cytopathic effect [CPE] (3days) TCID50: < 3.5
  Cytopathic effect [CPE] (6days) TCID50: < 3.5
  Cytopathic effect [CPE] (3days) △TCID50: > 3.2
  Cytopathic effect [CPE] (6days) △TCID50: > 3.2
[2]; 100 μg/ml
  Cytopathic effect [CPE] (3days) Average: 0
  Cytopathic effect [CPE] (5days) Average: 0
  Cytopathic effect [CPE] (3days) △CPE: 2.0
  Cytopathic effect [CPE] (5days) △CPE: 3.0
[2]; 200 μg/ml
  Cytopathic effect [CPE] (3days) Average: 0
  Cytopathic effect [CPE] (5days) Average: 0
  Cytopathic effect [CPE] (3days) △CPE: 2.0
  Cytopathic effect [CPE] (5days) △CPE: 3.0
[3]; 100 μg/ml
  Cytopathic effect [CPE] (3days) TCID50: 3.5
  Cytopathic effect [CPE] (5days) TCID50: 3.5
  Cytopathic effect [CPE] (3days) △TCID50: 2.0
  Cytopathic effect [CPE] (5days) △TCID50: 2.5
[3]; 200 μg/ml
  Cytopathic effect [CPE] (3days) TCID50: 3.5
  Cytopathic effect [CPE] (5days) TCID50: 3.5
  Cytopathic effect [CPE] (3days) △TCID50: 2.0
  Cytopathic effect [CPE] (5days) △TCID50: 2.5
[4]; 50 μg/ml, extracellular virus
  Intracellular virus Average: 7.13×10^5 /dish
  Intracellular virus Control ratio %: 97.6%
  Intracellular virus Control ratio -logT/C: 1.623
[4]; 50 μg/ml
  Intracellular virus Average: 1.34×10^6 /dish
  Intracellular virus Control ratio %: 99.7%
  Intracellular virus Control ratio -logT/C: 2.482
[4]; 100 μg/ml, extracellular virus
  Intracellular virus Average: 8.38×10^4 /dish
  Intracellular virus Control ratio %: 99.7%
  Intracellular virus Control ratio -logT/C: 2.554
[4]; 100 μg/ml
  Intracellular virus Average: 1.99×10^6 /dish
  Intracellular virus Control ratio -logT/C: 7.211
[4]; 100 μg/ml, 1440 min
  Intracellular virus Control ratio %: >99.9%
[4]; 200 μg/ml, extracellular virus
  Intracellular virus Control ratio -logT/C: 5.778
[4]; 200 μg/ml, extracellular virus, 1440 min
  Intracellular virus Control ratio %: >99.9%
[4]; 200 μg/ml
  Intracellular virus Control ratio -logT/C: > 7.211
[4]; 200 μg/ml, 1440 min
  Intracellular virus Control ratio %: >99.9%
[4]; concentration not given, 1440 min
  control of the intracellular and extracellular viruses in the one-step growth: not less than 99.9%
